Activity calls are given as the source filed them.
How the values were obtained:
[1] = Counterscreen for inhibitors of Trypanosoma brucei methionyl tRNA synthetase (MetRS): Luminescence-based cell-based high throughput dose response assay to identify compounds that are cytotoxic to Jurkat human T lymphocyte cells.; type: functional
[2] = target: ADP-ribosylation factor GTPase-activating protein 1 (Rattus norvegicus, UniProt Q62848); assay: Fluorescence polarization-based biochemical high throughput dose response screening assay to identify inhibitors of ADP-ribosylation factor GTPase activating protein 1 (ARFGAP1).; type: functional
[3] = target: T1, Sentrin-specific protease 1 (Homo sapiens, UniProt Q9P0U3); assay: potency of human SENP1 inhibitors, dose response, biochemical, kinetic FRET (AID 651697); type: functional; details: read-out: IC50_Mean
T1 sequence (Q9P0U3 whole entry): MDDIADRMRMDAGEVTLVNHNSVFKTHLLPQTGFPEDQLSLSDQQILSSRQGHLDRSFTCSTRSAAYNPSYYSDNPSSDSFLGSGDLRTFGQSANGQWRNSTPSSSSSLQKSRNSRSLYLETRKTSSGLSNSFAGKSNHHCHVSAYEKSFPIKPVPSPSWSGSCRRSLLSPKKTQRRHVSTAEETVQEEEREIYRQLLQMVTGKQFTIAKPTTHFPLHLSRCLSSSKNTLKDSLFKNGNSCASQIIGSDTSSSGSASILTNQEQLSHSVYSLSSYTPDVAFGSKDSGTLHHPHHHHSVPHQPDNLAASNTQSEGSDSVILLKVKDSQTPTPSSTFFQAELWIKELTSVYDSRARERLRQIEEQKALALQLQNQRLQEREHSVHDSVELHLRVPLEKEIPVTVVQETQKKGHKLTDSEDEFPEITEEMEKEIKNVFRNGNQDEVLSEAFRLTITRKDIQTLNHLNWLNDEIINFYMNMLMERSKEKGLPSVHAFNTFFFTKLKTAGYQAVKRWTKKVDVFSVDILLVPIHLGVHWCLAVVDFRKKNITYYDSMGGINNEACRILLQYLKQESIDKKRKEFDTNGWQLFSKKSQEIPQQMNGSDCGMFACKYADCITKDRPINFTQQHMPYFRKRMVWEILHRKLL

[4] = target: T1, Sentrin-specific protease 1; assay: Dose response confirmation of small molecule inhibitors of the catalytic domain of the SUMO protease, SENP1 in a FRET assay.; type: functional; details: read-out: IC50_Mean
BJ [5] = assay: cytotoxicity toward BJ-TERT fibroblasts, dose response, cell-based, RAS-independent, luminescence (AID 1933); type: functional; details: Homo sapiens
BJ [6] = assay: cells; type: functional, cell-based; details: Homo sapiens
BJ [7] = assay: cytotoxicity toward BJ-TERT-LT-ST fibroblasts, dose response, cell-based, RAS-independent, luminescence (AID 1935); type: functional; details: Homo sapiens;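 also: BJ fibroblasts immortalized with TERT plus LT and ST oncogenes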
[8] = cytotoxicity toward DRD oncogenic fibroblasts, dose response, cell-based, non-viral oncogenic, luminescence (AID 1934); type: functional; details: Homo sapiens
[9] = target: T2, Apoptotic protease-activating factor 1 (Homo sapiens, UniProt O14727); type: functional
T2 sequence (O14727 whole entry): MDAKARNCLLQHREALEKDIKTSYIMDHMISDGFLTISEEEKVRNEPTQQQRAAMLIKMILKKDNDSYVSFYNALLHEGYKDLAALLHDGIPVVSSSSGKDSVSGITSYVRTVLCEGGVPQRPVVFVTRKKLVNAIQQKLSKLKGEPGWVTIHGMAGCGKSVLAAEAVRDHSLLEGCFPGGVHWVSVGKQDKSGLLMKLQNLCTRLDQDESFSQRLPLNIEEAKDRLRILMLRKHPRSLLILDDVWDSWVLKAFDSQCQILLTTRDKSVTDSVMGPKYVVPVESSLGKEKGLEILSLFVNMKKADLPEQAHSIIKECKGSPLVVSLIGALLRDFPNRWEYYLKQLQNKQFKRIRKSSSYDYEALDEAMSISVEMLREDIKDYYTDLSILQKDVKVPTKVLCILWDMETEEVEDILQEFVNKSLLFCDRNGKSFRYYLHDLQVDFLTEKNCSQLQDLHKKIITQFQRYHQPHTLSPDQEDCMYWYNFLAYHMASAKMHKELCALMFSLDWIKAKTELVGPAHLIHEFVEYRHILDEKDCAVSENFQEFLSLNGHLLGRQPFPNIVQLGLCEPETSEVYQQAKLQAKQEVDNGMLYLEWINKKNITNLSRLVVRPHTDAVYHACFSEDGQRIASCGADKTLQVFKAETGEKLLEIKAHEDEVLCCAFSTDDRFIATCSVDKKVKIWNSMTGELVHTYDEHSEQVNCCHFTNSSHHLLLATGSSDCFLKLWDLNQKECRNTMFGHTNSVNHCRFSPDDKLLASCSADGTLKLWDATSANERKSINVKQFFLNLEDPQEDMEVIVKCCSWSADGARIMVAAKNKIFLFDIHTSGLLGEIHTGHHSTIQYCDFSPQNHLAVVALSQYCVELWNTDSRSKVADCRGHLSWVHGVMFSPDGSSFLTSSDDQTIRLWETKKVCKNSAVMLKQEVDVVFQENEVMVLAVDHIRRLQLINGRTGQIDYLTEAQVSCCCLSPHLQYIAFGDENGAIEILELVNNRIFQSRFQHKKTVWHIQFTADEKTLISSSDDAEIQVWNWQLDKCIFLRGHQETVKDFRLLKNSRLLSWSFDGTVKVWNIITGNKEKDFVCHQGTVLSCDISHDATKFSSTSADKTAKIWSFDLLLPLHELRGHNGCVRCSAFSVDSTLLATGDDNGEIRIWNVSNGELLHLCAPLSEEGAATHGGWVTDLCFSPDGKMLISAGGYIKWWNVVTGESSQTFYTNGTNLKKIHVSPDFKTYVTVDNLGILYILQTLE

[10] = target: T3, Adenosylmethionine-8-amino-7-oxononanoate aminotransferase (Mycobacterium tuberculosis, UniProt P9WQ81); assay: Mycobacterium tuberculosis BioA enzyme inhibitor Measured in Biochemical System Using Plate Reader - 2163-02_Inhibitor_Dose_CherryPick_Activity.; type: functional, Mycobacterium tuberculosis UT205
T3 sequence (P9WQ81 whole entry): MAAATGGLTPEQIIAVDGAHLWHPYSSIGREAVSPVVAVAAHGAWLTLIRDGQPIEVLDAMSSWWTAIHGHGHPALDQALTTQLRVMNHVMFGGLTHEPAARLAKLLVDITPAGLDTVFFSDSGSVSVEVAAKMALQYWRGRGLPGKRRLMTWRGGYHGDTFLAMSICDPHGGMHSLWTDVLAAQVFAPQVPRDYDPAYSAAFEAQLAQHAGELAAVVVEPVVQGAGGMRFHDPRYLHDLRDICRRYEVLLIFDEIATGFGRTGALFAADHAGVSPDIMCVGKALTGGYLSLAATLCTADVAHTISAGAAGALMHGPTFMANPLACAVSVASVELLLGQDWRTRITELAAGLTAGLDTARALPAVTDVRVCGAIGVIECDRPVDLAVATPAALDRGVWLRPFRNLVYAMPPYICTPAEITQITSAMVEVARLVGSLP

[11] = NIH-3T3 fibroblast cytotoxicity, dose response, cytotoxicity control, cell-based, fluorescence, Alamar Blue, secondary assay (AID 2327); type: functional;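 also: NIH-3T3 mouse fibroblasts cultured with fluconazole at 8 µg/mL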
[12] = C. albicans growth with fluconazole, confirmation, fluorescence, retest (AID 2467); type: functional, cell-based
[13] = target: T4, DNA repair and recombination protein RAD54-like (Homo sapiens, UniProt Q92698); assay: inhibitors of human RAD54 branch migration, confirmation, biochemical, fluorescence, cherry-picked samples, dose series (AID 651657); type: functional
T4 sequence (Q92698 whole entry): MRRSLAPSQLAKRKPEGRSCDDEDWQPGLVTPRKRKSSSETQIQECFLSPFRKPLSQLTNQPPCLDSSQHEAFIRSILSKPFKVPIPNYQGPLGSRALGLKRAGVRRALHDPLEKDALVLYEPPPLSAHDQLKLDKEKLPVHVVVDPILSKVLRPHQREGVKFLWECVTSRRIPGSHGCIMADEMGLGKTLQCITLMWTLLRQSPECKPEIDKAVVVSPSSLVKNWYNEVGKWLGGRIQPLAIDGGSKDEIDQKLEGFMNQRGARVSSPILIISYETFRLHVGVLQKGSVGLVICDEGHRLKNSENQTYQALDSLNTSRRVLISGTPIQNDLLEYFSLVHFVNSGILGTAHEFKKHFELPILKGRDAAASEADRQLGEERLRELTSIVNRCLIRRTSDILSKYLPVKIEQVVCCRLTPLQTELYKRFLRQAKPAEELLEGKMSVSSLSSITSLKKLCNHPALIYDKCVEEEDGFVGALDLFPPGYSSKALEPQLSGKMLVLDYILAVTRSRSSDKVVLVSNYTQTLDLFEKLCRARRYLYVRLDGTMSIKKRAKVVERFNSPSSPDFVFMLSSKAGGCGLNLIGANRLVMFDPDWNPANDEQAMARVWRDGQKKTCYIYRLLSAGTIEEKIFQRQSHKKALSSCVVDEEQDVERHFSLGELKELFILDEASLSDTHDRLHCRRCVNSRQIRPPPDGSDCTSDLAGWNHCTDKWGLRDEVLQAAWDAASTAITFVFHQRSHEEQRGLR

[14] = inhibitors of firefly luciferase expression or activity, dose response, H4 neuroglioma cells, luminescence (AID 1990); type: functional, cell-based
[15] = Luminescence Cell-Based Dose Response HTS to Identify Inhibitors of 5'UTR Stem-Loop Driven Prion Protein mRNA Translation in H4 Neuroglioblastoma Cells. [Related pubchem assays: 1827 (Project Summary), 1813 (Primary HTS)]; type: functional
[16] = inhibitors of SNCA 5'UTR-driven reporter translation, confirmation, H4 neuroglioma cells, luminescence (AID 1988); type: functional, cell-based
[17] = microbe, parasite or virus in culture; type: functional; details: Mycobacterium tuberculosis
[18] = target: T5, Ubiquitin-conjugating enzyme E2 N (Homo sapiens, UniProt P61088); type: functional;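 also: Dose-response confirmation in a TR-FRET assay detecting UBC13-driven polyubiquitin chain formation, inhibition measured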
T5 sequence (P61088 whole entry): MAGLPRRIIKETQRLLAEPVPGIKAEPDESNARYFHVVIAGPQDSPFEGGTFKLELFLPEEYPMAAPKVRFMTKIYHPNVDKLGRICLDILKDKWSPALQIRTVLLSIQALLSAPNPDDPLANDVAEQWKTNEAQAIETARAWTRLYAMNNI

INS1 = assay: beta cell apoptosis inhibitors, cytokine rescue, dose response, luminescence, retest (AID 449756); type: functional, cell-based; details: Rattus norvegicus;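 also: cell death triggered by IL-1 beta plus TNF-alpha plus IFN-gamma mixture; protective hits raise ATP signal compared with cytokine alone wells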
[19] = target: T6, Rac GTPase-activating protein 1 (Homo sapiens, UniProt Q9H0H5); assay: MgcRacGAP GTPase-activating activity inhibitors, confirmation, biochemical, ADP Hunter fluorescence, primary and confirmatory (AID 624330); type: functional
T6 sequence (Q9H0H5 whole entry): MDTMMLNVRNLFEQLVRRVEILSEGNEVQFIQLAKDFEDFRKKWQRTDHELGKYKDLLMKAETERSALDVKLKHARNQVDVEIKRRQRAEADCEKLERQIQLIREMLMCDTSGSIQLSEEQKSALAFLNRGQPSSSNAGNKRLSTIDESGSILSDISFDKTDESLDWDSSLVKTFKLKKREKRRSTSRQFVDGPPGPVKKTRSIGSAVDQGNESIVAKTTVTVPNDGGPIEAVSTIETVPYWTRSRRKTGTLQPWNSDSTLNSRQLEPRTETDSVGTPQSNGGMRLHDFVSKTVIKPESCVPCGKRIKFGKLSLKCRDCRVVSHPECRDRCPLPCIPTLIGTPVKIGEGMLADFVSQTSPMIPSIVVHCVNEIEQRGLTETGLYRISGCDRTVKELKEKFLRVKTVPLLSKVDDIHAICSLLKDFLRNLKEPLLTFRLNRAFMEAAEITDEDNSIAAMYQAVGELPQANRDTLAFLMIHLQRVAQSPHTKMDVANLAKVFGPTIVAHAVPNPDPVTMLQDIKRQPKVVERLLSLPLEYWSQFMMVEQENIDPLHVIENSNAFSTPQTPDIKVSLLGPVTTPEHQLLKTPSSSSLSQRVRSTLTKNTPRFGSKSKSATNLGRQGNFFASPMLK

Sequence of ADP-ribosylation factor GTPase-activating protein 1 (Q62848 whole entry): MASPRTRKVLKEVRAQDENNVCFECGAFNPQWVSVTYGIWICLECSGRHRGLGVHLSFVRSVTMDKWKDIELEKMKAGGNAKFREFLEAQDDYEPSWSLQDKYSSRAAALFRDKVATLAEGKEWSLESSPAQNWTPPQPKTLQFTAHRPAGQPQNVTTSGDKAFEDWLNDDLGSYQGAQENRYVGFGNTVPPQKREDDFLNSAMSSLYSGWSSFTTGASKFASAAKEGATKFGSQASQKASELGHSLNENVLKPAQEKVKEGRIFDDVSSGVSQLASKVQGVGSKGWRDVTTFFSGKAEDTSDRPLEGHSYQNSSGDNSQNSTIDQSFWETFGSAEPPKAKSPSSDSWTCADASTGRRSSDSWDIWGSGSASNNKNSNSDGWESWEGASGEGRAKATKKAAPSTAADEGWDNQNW

O=C(Cc1ccc(Br)cc1)NNC(=O)Nc1ccc(Cl)cc1
IC50 [1]: 83.3 µM (inactive)

Nc1nc(/C=C/c2cccnc2)nc(-c2ccccc2O)n1
IC50 [2]: 165 µM (inactive)

O=c1[nH]c2cc3ccccc3cc2nc1-c1nnnn1Cc1ccccc1
IC50 [3]: 15.8 µM (active)
IC50 [4]: 7.19 µM (active)

COc1cc(OC)cc(C(=O)Nc2ccccc2-c2nnn(CC(=O)Nc3cc(C)on3)n2)c1
IC50 [2]: 72.6 µM (inactive)

COc1ccc(/C=N/NC(=O)CCn2cnc(-c3ccccc3)c2-c2ccccc2)cc1
EC50 (BJ [5]): 1.9 µM (active)
EC50 (BJ [6]): 46.3 µM (active)
EC50 (BJ [7]): 1.75 µM (active)
EC50 [8]: 1.68 µM (active)
IC50 [9]: 25.2 µM (active)

COc1ccc(-c2cc(NC=O)c3ncc(-c4cccc(C(=O)N(C)C)c4)n3c2)cn1
AC50 [10]: 11.2 µM (active)

COc1cc(/C=C/C(=O)Nc2cccnc2)cc(OC)c1OC
EC50 [11]: > 160 µM (inactive)
EC50 [12]: > 38 µM (not active)
AC50 [10]: 0.629 µM (active)

O=C(c1ccc([N+](=O)[O-])o1)N(Cc1nnc(-c2ccccc2Cl)o1)C1CC1
IC50 [9]: > 100 µM (inactive)

Nc1c(C(=O)NCCN2CCOCC2)c2nc3ccccc3nc2n1-c1ccccc1
AC50 [13]: 52 µM (active)

Nc1ccc2c(c1)C(=O)N(CC1CCCO1)C2=O (stereo not given)
IC50 [3]: 11.1 µM (active)
IC50 [4]: 8.2 µM (active)

COc1ccc2[nH]c(=O)c(CNc3ccccc3OC)cc2c1
IC50 [9]: 51.4 µM (active)

Cc1ccc(NC2=C(C(=O)c3ccccc3)N(C)S(=O)(=O)c3ccccc32)cc1
IC50 [3]: 26.2 µM (inactive)
IC50 [4]: 15.4 µM (active)

COc1ccc(CNC[C@@H](CCCCN(C)Cc2ccc(OC)cc2)N2C[C@H](c3ccccc3)N(CCc3ccc(Cl)c(Cl)c3)C(=O)C2=O)cc1
EC50 [14]: > 120 µM (not active)
EC50 [15]: > 120 µM (not active)
EC50 [16]: 9.63 µM (active)
CC50 [17]: 6.46 µM (active)
IC50 [18]: > 20 µM (inactive)
IC50 [9]: 46.4 µM (active)
AC50 (INS1): 7.7 µM (active)

COc1ccc(NC2CCCN(C(=O)c3ccc(C(C)=O)s3)C2)cc1 (stereo not given)
AC50 [10]: 1.99 µM (active)
IC50 [19]: 80.9 µM (active)

Reference: ChEMBL document CHEMBL1201862, “PubChem BioAssay data set” (2004)
